Measured values from patent US9365597B2, “Mitochondria-targeted inhibitors of cytochrome c peroxidase for protection from apoptosis” (Brock University, priority 2011, dated 2016).

Key:
cyt c/TOCL complexes = biological target: T1, cyt c/TOCL complexes (Equus caballus, UniProt P00004); assay: Peroxidase activity of cyt c/TOCL complexes, H2O2-induced oxidation of Amplex Red to resorufin; assay type: biochemical; settings: cyt c 1 μM, CL/cyt c 25:1, 50 μM Amplex Red, 50 μM H2O2, 20 min
T1 construct: purchased Sigma (St. Louis, Mo.)
T1 sequence (P00004 2-105 limits assumed, one chain of several): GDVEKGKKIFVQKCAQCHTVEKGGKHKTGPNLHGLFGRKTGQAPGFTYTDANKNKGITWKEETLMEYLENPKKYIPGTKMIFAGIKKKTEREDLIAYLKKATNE
Protocol: Conditions: cyt c (1 μM), H2O2 (50 μM), Amplex Red (50 μM). Experiments were performed in 20 mM HEPES buffer (pH 7.4) containing DTPA (100 μM), cyt c was incubated with DOPC/TOCL liposomes (1:1) at a ratio of TOCL:cyt c of 25:1.
Peroxidase activity of cyt c was assessed by oxidation of Amplex Red, etoposide or TLCL (tetra-linoleoyl-cardiolipin). Measurements of Amplex Red oxidation were performed using fluorescence of its oxidation product resorufin. Cyt c (1 μM) was incubated with tetra-oleoyl-cardiolipin (TOCL) containing liposomes (CL/cyt c ratio 25:1). Then 50 μM Amplex Red and 50 μM H2O2 were added, and the incubation proceeded for an additional 20 min. Fluorescence was detected by employing a “Fusion α” universal microplate analyzer and by using an excitation wavelength of 535 nm and an emission wavelength of 590 nm. EPR spectra of etoposide phenoxyl radicals were recorded at 25° C. in gas permeable Teflon tubings (inner diameter, 0.8 mm; thickness, 0.013; Alpha Wire Corp., Elizabeth, N.J.). Volume of samples was 60 μL. The spectra were recorded under the following conditions: 335.3 mT, center field; 2 mT, sweep width; 0.04 mT, field modulation; 10 mW, microwave power; 0.1 s, time constant; 2 min, time scan. The time course of the etoposide radical EPR signal was obtained by repeated scanning of the field (0.15 mT, sweep width; 335.3 mT, center field) corresponding to a part of the EPR signal. Peroxidase activity of mitochondria was determined by the formation of resorufin from Amplex Red. Isolated mouse liver mitochondria (0.6 mg/ml) were incubated in the presence of 100 μM Amplex Red and 2 mM tert-butyl hydroperoxide (tBOOH). After incubation at room temperature for 20 min, fluorescence of resurufin was measured.
(§1) Small unilamellar liposomes were prepared from dioleoylphosphatidylcholine (DOPC) and TOCL (1:1 ratio) or DOPC and TLCL (4:1 ratio) by sonication in HEPES buffer (20 mM with 100 μM diethylene triamine pentaacetic acid (DTPA) (pH 7.4) 3×60 sec, relaxation time 2 min, 4° C.).
Peroxidase activity of cyt c was assessed by oxidation of Amplex Red, etoposide or TLCL as described above.

cyt c/TLCL = biological target: T2, cyt c/TLCL (Equus caballus, UniProt P00004); assay: cyt c/H2O2-induced TLCL (tetra-linoleoyl-cardiolipin) peroxidation, ESI-MS; assay type: biochemical; settings: for inhibition of cyt c/H2O2-induced oxidation of TLCL: cyt c 4 μM, TLCL 100 μM, H2O2 80 μM, 10 min, 37° C.; for oxidation of TLCL at ratio of cyt c to compound of 1:20: cyt c:compound 1:20
T2 construct: purchased Sigma (St. Louis, Mo.)
T2 sequence (P00004 2-105 limits assumed): as the sequence (P00004 2-105 limits assumed, one chain of several) above
Protocol: For measurement of TLCL oxidation, cyt c (4 μM) was incubated with TLCL (100 μM) containing liposomes (TLCL/cyt c ratio-20:1) and H2O2 (80 μM) for 10 min at 37° C. The reaction was stopped by catalase (150 units/ml) and CL was extracted using Folch procedure^37. Analysis of (hydroperoxy- and hydroxy-) oxidized phospholipid species was performed as described^30. TLCL and its oxidized molecular species were extracted by the Folch procedure^37 and separated on a normal phase column (Luna 3 μm Silica 100A, 150×2 mm, Phenomenex, Torrance Calif.). […] The ESI probe was operated at a voltage differential of 3.5-5.0 kV in the negative ion mode. Capillary temperature was maintained at 150° C. Using range zoom (200-2000 m/z) in negative ion mode, the centroid spectra were acquired.
as §1

mouse embryonic cells [1] = assay: ATP levels in mouse embryonic cells (bioluminescent kit); assay type: cell-based
Protocol: ATP levels in cells were measured using ATP bioluminescent somatic cell assay kit (St. Louis, Mo.) according to the manufacturer's instructions.

mouse embryonic cells [2] = assay: Superoxide production in mouse embryonic cells (dihydroethidium, flow cytometry); assay type: cell-based; settings: cells with or without radiation treatment (10 Gy); 2.5 and 5 μM, 18 hrs
Protocol: Cells were γ-irradiated at a dose of 10 Gy and then incubated with different concentrations of TPP-IOA or TPP-ISA (2.5 and 5 μM) for 18 hrs. To estimate superoxide generation, cells were incubated with 5 μM of dihydroethidium (DHE) for 30 min at 37° C. Collected cells were re-suspended in phosphate buffered saline (PBS) and fluorescence of 2-hydroxyethidium was analyzed using FACScan supplied with CellQuest software. Data are means±S.D., n=3. *p<0.01 vs. control cells (without any treatment).
A superoxide-meditated oxidation-sensitive fluorogenic dye, dihydroethidium (DHE), was utilized for assessments of superoxide production. Briefly, cells were incubated with 5 μM of DHE for 30 min. Cells were collected by trypsinization and re-suspended in PBS. The fluorescence of 2-hydroxyethidium was measured using a FACScan flow cytometer (BD Biosciences, San Jose, Calif.) supplied with the CellQuest software. Mean fluorescence intensity from 10,000 cells was acquired using a 585/42-nm band-pass filter.

[3] = system: caspase-3 activation in S-100 from mouse embryonic cells; assay: Cell-free apoptosis system (S100): caspase-3 activation by exogenous cyt c/dATP; assay type: biochemical; settings: S100, 1 mM dATP, 1 μM cyt c, 90 min
Protocol: The cytosol extracts (S100) of mouse embryonic cells were obtained as described previously^38 with minor modifications. Briefly, the cells were washed twice in cold phosphate-buffered saline, pH 7.4, and the resulting pellet was resuspended in buffer containing 25 mM HEPES-KOH, pH 7.0, 10 mM KCl, 1.5 mM MgCl2, 1 mM EDTA, 1 mM EGTA, 1 mM DTT, 0.1 mM phenylmethylsulfonyl fluoride, 0.05% digitonin, and 1% protease inhibitor mixture for 2 min at 4° C. Cells were centrifuged at 4° C. for 10 min at 10,000×g. The resulting supernatant was further centrifuged at 4° C. for 50 min at 100,000×g. The supernatant was collected as S-100 and kept at −80° C. until further use. For caspase-3 activation, S100 (5 μg of protein/μl) was incubated with 1 mM dATP and 1 μM cyt c for 90 min at 37° C. The caspase-3 activity was evaluated using Enzchek caspase-3 assay kit as described in the manufacturer's manual (Invitrogen, Carlsbad, Calif.).

C57BL/6NTac female mice [4] = assay: Survival of mice after 9.25 Gy total body irradiation, cesium irradiator; assay type: in vivo, mouse; settings: for radiomitigative effect (survival): i.p. 5 mg per kg, 10 min after irradiation
C57BL/6NTac female mice [5] = assay: Survival of mice after 9.25 Gy total body irradiation, linear accelerator; assay type: in vivo, mouse; settings: for Overall Survival (52 days): p versus irradiated mice / Survival Over First 20 Days: p versus irradiated mice: log-rank
Protocol: C57BL/6NTac female mice were exposed to total body irradiation to a dose of 9.25 Gy using a linear accelerator (n=10-23 mice per group). The mice were injected i.p. with TPP-IOA (5 mg per kg body weight in 100 μl of water containing 25% ethanol) at 1 h or 10 min before irradiation or 10 min, 5 or 24 h after irradiation. Mice exposed to: total body irradiation at the dose of 9.25 Gy only (black circles); to total body irradiation at the dose of 9.25 Gy and injected with TPP-IOA (5 mg per kg body weight) 10 min (grey circles), 5 h (downward-pointing triangles) and 24 h (lower grey squares) thereafter. Mice injected with TPP-IOA (5 mg per kg body weight) 10 min (upper grey squares) and 1 h (upward-pointing triangles) before total body irradiation (9.25 Gy).
C57BL/6NTac female mice were anaesthetized with Nembutal (1 mg per 20 g mouse), irradiated to a total body dose of 9.25 Gy using either a Shepherd Mark 1 Model 68 cesium irradiator at a dose rate of 80 cGy min^−1 (31-35 mice per group) or a Varian TrueBeam linear accelerator (Varian Medical Systems) at 100 monitor units or 100 cGy min^−1 using 6 MV photons with a 40 cm×40 cm field at 100 SSD (10-23 mice per group). Mice were injected intraperitoneally (i.p.) with 5 mg per kg body weight of TPP-IOA in a 100 μl volume of water containing 25% ethanol at 1 h before irradiation, 10 min before irradiation, 10 min after irradiation, 5 h after irradiation and 24 h after irradiation. Other groups were injected i.p. with 2.5 mg per kg body weight of TPP-IOA or 5 mg per kg body weight of TPP-ISA 10 min after irradiation. The mice were followed for the development of haematopoietic syndrome (at which time they were killed).
The log-rank test was used for three analyses: the comparison of overall survival that is defined as the time from the date of radiation to the date of death for all mice under study; the comparison of short-term survival over the first 20 days, that is, the overall survival count at 20 days; and the comparison of conditional survival in mice surviving 20 or more days, that is, the time from the date of radiation to the date of death for all mice who survived 20 days or longer after radiation. All these comparisons were made between each of the treated groups and the radiation-only control group.

C57BL/6NTac female mice [6] = assay: Health of non-irradiated mice after i.p. injection; assay type: in vivo, mouse; settings: i.p. 5 mg per kg body weight, period of study 52 days
[7] = 2.5 mg/kg body weight i.p., 10 min after 9.25 Gy
[8] = 5 mg/kg body weight i.p., 10 min after 9.25Gy
[9] = 5 mg/kg body weight i.p., 10 min before 9.25Gy
[10] = 5 mg/kg body weight i.p., 1 hr before 9.25Gy
[11] = 5 mg/kg body weight i.p., 5 hr after 9.25Gy
[12] = 5 mg/kg body weight i.p., 24 hr after 9.25Gy

| Compound | inhibition of peroxidase activity of cyt c/TOCL complexes (Amplex Red oxidation) (cyt c/TOCL complexes) | inhibition of cyt c/H2O2-induced oxidation of TLCL (cyt c/TLCL) | oxidation of TLCL at ratio of cyt c to compound of 1:20 (cyt c/TLCL) | effect on ATP levels (mouse embryonic cells [1]) | effect on superoxide production (mouse embryonic cells [2]) | caspase activation caused by exogenously added cyt c [3] | radiomitigative effect (survival) (C57BL/6NTac female mice [4]) | Overall Survival (52 days): p versus irradiated mice (C57BL/6NTac female mice [5]; [8]) | Survival Over First 20 Days: p versus irradiated mice (C57BL/6NTac female mice [5]; [8]) | adverse side effects in non-irradiated mice (C57BL/6NTac female mice [6]) | also measured |
| --- | --- | --- | --- | --- | --- | --- | --- | --- | --- | --- | --- |
| CCCCCCC(C/C=C\CCCCCCCC(=O)OCCC[P+](c1ccccc1)(c1ccccc1)c1ccccc1)n1ccnc1.[Br-] (stereo not shown) [TPP-IOA] | as effective as non-conjugated ISA and IOA | inhibited cyt c/H2O2-induced oxidation of TLCL in a concentration-dependent manner | completely blocked | Neither TPP-IOA nor TPP-ISA had any effect | neither TPP-IOA nor TPP-ISA had any effect | completely insensitive | strong radiomitigative effect | <0.0001 | <0.0001 | no adverse side effects were noticed | P (two-sided log-rank test), TPP-IOA versus TPP-ISA (C57BL/6NTac female mice [4]; 5 mg per kg 10 min after irradiation): 0.6389; mitigating the mice against irradiation, lower dose (C57BL/6NTac female mice [5]; 2.5 mg per kg body weight, 10 min after irradiation): not effective; Overall Survival (52 days): Median Survival (95% Confidence Interval) (C57BL/6NTac female mice [5]; [7]): 17 (14, —) days; Survival Over First 20 Days: Median Survival (95% Confidence Interval) (C57BL/6NTac female mice [5]; [7]): 17 (14, —) days; Overall Survival (52 days): p versus irradiated mice (C57BL/6NTac female mice [5]; [7]): 0.0525; Survival Over First 20 Days: p versus irradiated mice (C57BL/6NTac female mice [5]; [7]): 0.0525; survival when given at later time points after irradiation (C57BL/6NTac female mice [5]; 5 mg per kg, 5 or 24 h after irradiation): significant increase in survival; protection when given before irradiation (C57BL/6NTac female mice [5]; 5 mg per kg, 10 min or 1 h before irradiation): protective; Overall Survival (52 days): Median Survival (95% Confidence Interval) (C57BL/6NTac female mice [5]; [8]): — (—, —); Survival Over First 20 Days: Median Survival (95% Confidence Interval) (C57BL/6NTac female mice [5]; [8]): — (—, —); Overall Survival (52 days): p versus irradiated mice (C57BL/6NTac female mice [5]; [9]): 0.0009; Survival Over First 20 Days: p versus irradiated mice (C57BL/6NTac female mice [5]; [9]): 0.0009; Overall Survival (52 days): p versus irradiated mice (C57BL/6NTac female mice [5]; [10]): 0.0230; Survival Over First 20 Days: p versus irradiated mice (C57BL/6NTac female mice [5]; [10]): 0.0230; Overall Survival (52 days): p versus irradiated mice (C57BL/6NTac female mice [5]; [11]): 0.0030; Survival Over First 20 Days: p versus irradiated mice (C57BL/6NTac female mice [5]; [11]): 0.0030; Overall Survival (52 days): Median Survival (95% Confidence Interval) (C57BL/6NTac female mice [5]; [12]): 18 (13, —) days; Survival Over First 20 Days: Median Survival (95% Confidence Interval) (C57BL/6NTac female mice [5]; [12]): 18 (13, —) days; Overall Survival (52 days): p versus irradiated mice (C57BL/6NTac female mice [5]; [12]): 0.0416; Survival Over First 20 Days: p versus irradiated mice (C57BL/6NTac female mice [5]; [12]): 0.0416 |
| CCCCCCC(CCCCCCCCCCC(=O)OCCC[P+](c1ccccc1)(c1ccccc1)c1ccccc1)n1ccnc1.[Br-] (stereo not shown) [TPP-ISA] | as effective as non-conjugated ISA and IOA | inhibited cyt c/H2O2-induced oxidation of TLCL in a concentration-dependent manner | completely blocked | Neither TPP-IOA nor TPP-ISA had any effect | neither TPP-IOA nor TPP-ISA had any effect | completely insensitive | strong radiomitigative effect | 0.0114 | 0.0114 | no adverse side effects were noticed |  |
